Experimental data published in EP4741379A1, “CLASS OF PROGRAMMED CELL DEATH INHIBITORS, PREPARATION METHOD THEREFOR AND USE THEREOF” (SHANGHAI INSTITUTE OF ORGANIC CHEMISTRY, CHINESE ACADEMY OF …, priority 2023, dated 2025).
Like-named read-outs stand apart in the source and are kept apart here.

Assays:
L929 cells = assay: TNF-induced programmed necrosis of L929 cells (Cell Titer-Glo viability); assay type: cell-based, mouse; settings: Mus musculus
Description: (§1) The biological test protocol is adopted to test effects of the compound on TNF-induced programmed necrosis of FADD (Fas-associated death domain)-deficient Jurkat cells and L929 cells.
(§2) Two different stimulation methods were used: treating with tumor necrosis factor (TNFα) alone, or treating with TNFα in combination of mitochondrial-derived cysteine-aspartate activator (SMAC) SM164. Cell viability was determined by measuring chemiluminescence values, thereby assessing the bioactivity of the compounds in inhibiting programmed cell necrosis.
(§3) Method: FADD-deficient Jurkat cells: FADD-deficient Jurkat cells (human peripheral blood leukemia T cell line) were cultured in vitro. After reaching logarithmic growth phase, cells were collected and centrifuged at 1000 rpm for 5 minutes. A supernatant was discarded. A cell concentration was adjusted to 2.5×10^5/mL, and cells were seeded into a 384-well plate at 40 µL per well. In the corresponding wells, 5 µL of SM164 (50 nM) and compounds diluted with cell culture medium were added. After pre-treatment at 37°C for 1 hour, 5 µL of TNFα (50 ng/mL) diluted with cell culture medium was added to each well as a stimulation group, while 5 µL of culture medium was added as a control group. After the plate was incubated in a cell culture incubator (37°C, 5% CO2) for 14 hours, 15 µL of Cell Titer-Glo solution was added to each well. Then, the plate was incubated at room temperature for 30 minutes. Luminescence was measured to assess intracellular ATP levels. Cell viability was set at 100% for unstimulated DMSO control wells. […] The plate was placed in a cell culture incubator (37°C, 5% CO2) and cultured for 12 hours. In the corresponding wells, 5 µL of SM164 (500 nM) and compounds diluted with cell culture medium were added. After pre-treatment at 37°C for 1 hour, 5 µL of TNFα (500 ng/mL) diluted with cell culture medium was added to the wells as a stimulation group, while 5 µL of culture medium was added as a control group. After the plate was incubated in the cell incubator (37°C, 5% CO2) for 14 hours, 15 µL of Cell Titer-Glo solution was added to each well. Then, the plate was incubated at room temperature for 30 minutes, and luminescence was measured to assess intracellular ATP levels. Cell viability was set at 100% for unstimulated DMSO control wells. EC50 values of the compounds were calculated using Prism GraphPad statistical software.

[1] = test system: FADD-deficient Jurkat cells; assay: TNF-induced programmed necrosis of FADD-deficient Jurkat cells (Cell Titer-Glo viability); assay type: cell-based, human; settings: for EC50: Homo sapiens, Jurkat
Description: as §1, §2, §3

[2] = L929, stimulation with TNFα + SM164, read-out: EC50 (nM) L929 cells (mouse-derived) TNFα+ SM164
[3] = L929, stimulation with TNFα alone, read-out: EC50 (nM) L929 cells (mouse-derived) TNFα
[4] = stimulation with TNFα + SM164, read-out: EC50 (nM) FADD^-/- Jurkat cells (human-derived) TNFα+ SM164
[5] = stimulation with TNFα alone, read-out: EC50 (nM) FADD^-/- Jurkat cells (human-derived) TNFα
[6] = L929, read-out: EC50 (nM) L929 cells (mouse-derived) TNFα
[7] = read-out: EC50 (nM) FADD^-/- Jurkat cells (human-derived) TNFα

SMILES	EC50 (L929 cells; [2])	EC50 (L929 cells; [3])	EC50 [1, 4]	EC50 [1, 5]	EC50 (L929 cells; [6])	EC50 [1, 7]	EC50 (L929 cells; L929, stimulation with TNFα + SM164, µM, read-out: EC50 L929 cells (mouse-derived) TNFα+ SM164)	EC50 (L929 cells; L929, stimulation with TNFα alone, µM, read-out: EC50 L929 cells (mouse-derived) TNFα)	programmed necroptosis inhibitory activity compared to SAR443122 ([1]; TNFα alone or TNFα + SM164, human derived FADD-deficient Jurkat cells)
Cn1nnc(C(=O)NCc2ccc(C#Cc3ccccn3)cc2F)c1Cc1ccccc1 [IRCBC-059]	14.8 nM	3.07 nM	2.26 nM	0.025 nM	–	–	–	–	–
C[C@H](NC(=O)c1nnn(C)c1Cc1ccccc1F)c1ccc(C#Cc2ccccn2)cc1 [IRCBC-067]	0.887 nM	0.264 nM	0.261 nM	0.004 nM	–	–	–	–	–
C[C@H](NC(=O)c1nnn(C)c1Cc1ccc(C#N)cc1)c1ccc(C#Cc2ccccn2)cc1 [IRCBC-071]	2.99 nM	0.914 nM	0.641 nM	0.006 nM	–	–	–	–	–
C[C@H](NC(=O)c1nnn(C)c1Cc1cccc(C#N)c1)c1ccc(C#Cc2ccccn2)cc1 [IRCBC-072]	17.3 nM	1.79 nM	2.73 nM	0.049 nM	–	–	–	–	–
C[C@H](NC(=O)c1nnn(C)c1Cc1ccccc1)c1ccc(C#Cc2c(F)cncc2F)cc1 [IRCBC-091]	1.29 nM	0.455 nM	0.145 nM	0.004 nM	–	–	–	–	–
C[C@H](NC(=O)c1nnn(C)c1Cc1ccccc1)c1ccc(C#Cc2ccncc2Cl)cc1 [IRCBC-093]	–	–	–	–	0.374 nM	0.001 nM	–	–	–
C[C@H](NC(=O)c1nnn(C)c1Cc1ccccc1)c1ccc(C#Cc2ccncc2C#N)cc1 [IRCBC-094]	2.16 nM	0.403 nM	0.304 nM	0.001 nM	–	–	–	–	–
COc1cnc(C#Cc2ccc([C@H](C)NC(=O)c3nnn(C)c3Cc3ccccc3)cc2)nc1 [IRCBC-095]	0.052 nM	0.01 nM	0.002 nM	–	–	–	–	–	–
C[C@H](NC(=O)c1nnn(C)c1Cc1ccccc1)c1ccc(C#Cc2ccc(C(F)(F)F)cn2)cc1 [IRCBC-096]	–	–	0.406 nM	0.006 nM	–	–	> 1000 nM	> 1000 nM	–
C[C@H](NC(=O)c1nnn(C)c1Cc1ccccc1)c1ccc(C#Cc2cnc(N(C)C)cn2)cc1 [IRCBC-098]	0.062 nM	0.011 nM	0.004 nM	–	–	–	–	–	–
C[C@H](NC(=O)c1nnn(C)c1Cc1ccccc1)c1ccc(C#Cc2cccc(N(C)C)n2)cc1 [IRCBC-099]	0.734 nM	0.399 nM	3.46 nM	0.195 nM	–	–	–	–	–
C[C@H](NC(=O)c1nnn(C)c1Cc1ccccc1)c1ccc(C#Cc2ccnc(N(C)C)n2)cc1 [IRCBC-100]	1.21 nM	0.561 nM	1.79 nM	0.084 nM	–	–	–	–	–
C[C@H](NC(=O)c1nnn(C)c1Cc1ccccc1)c1ccc(C#Cc2ccnc(N(C)C)c2)cc1 [IRCBC-101]	2.1 nM	0.405 nM	0.582 nM	0.036 nM	–	–	–	–	–
C[C@H](NC(=O)c1nnn(C)c1Cc1ccccc1)c1ccc(C#Cc2ccc(N3CCC3)cn2)cc1 [IRCBC-103]	0.104 nM	0.044 nM	0.001 nM	–	–	–	–	–	–
C[C@H](NC(=O)c1nnn(C)c1Cc1ccccc1)c1ccc(C#Cc2ccc(N3CCCC3)cn2)cc1 [IRCBC-104]	0.12 nM	0.071 nM	0.002 nM	–	–	–	–	–	–
C[C@H](NC(=O)c1nnn(C)c1Cc1ccccc1)c1ccc(C#Cc2csc(N(C)C)n2)cc1 [IRCBC-106]	0.3 nM	0.139 nM	0.256 nM	0.004 nM	–	–	–	–	–
C[C@H](NC(=O)c1nnn(C)c1Cc1ccccc1)c1ccc(C#Cc2cnc(N(C)C)nc2)cc1 [IRCBC-119]	70.9 nM	20.9 nM	5.79 nM	0.164 nM	–	–	–	–	–

SMILES	EC50 (L929 cells; [2])	EC50 (L929 cells; [3])	EC50 [1, 4]	EC50 [1, 5]	EC50 (L929 cells; [6])	EC50 [1, 7]	EC50 (L929 cells; L929, stimulation with TNFα + SM164, µM, read-out: EC50 L929 cells (mouse-derived) TNFα+ SM164)	EC50 (L929 cells; L929, stimulation with TNFα alone, µM, read-out: EC50 L929 cells (mouse-derived) TNFα)	programmed necroptosis inhibitory activity compared to SAR443122 ([1]; TNFα alone or TNFα + SM164, human derived FADD-deficient Jurkat cells)
C[C@H](NC(=O)c1nnn(C)c1Cc1ccccc1)c1ccc(C#Cc2ccc(C(C)(C)O)cn2)cc1 [IRCBC-120]	1.74 nM	0.438 nM	0.079 nM	0.002 nM	–	–	–	–	–
C[C@H](NC(=O)c1nnn(C)c1Cc1ccccc1)c1ccc(C#Cc2ncccc2C#N)cc1 [IRCBC-121]	0.069 nM	0.012 nM	0.01 nM	–	–	–	–	–	–
C[C@H](NC(=O)c1nnn(C)c1Cc1ccccc1)c1ccc(C#Cc2ncccc2F)cc1 [IRCBC-122]	0.032 nM	0.026 nM	0.035 nM	–	–	–	–	–	–
COc1cccnc1C#Cc1ccc([C@H](C)NC(=O)c2nnn(C)c2Cc2ccccc2)cc1 [IRCBC-123]	1.05 nM	0.246 nM	0.004 nM	–	–	–	–	–	–
C[C@H](NC(=O)c1nnn(C)c1Cc1ccccc1)c1ccc(C#Cc2ncccc2N(C)C)cc1 [IRCBC-124]	5.87 nM	1.93 nM	0.034 nM	–	–	–	–	–	–
C[C@H](NC(=O)c1nnn(C)c1Cc1ccccc1)c1ccc(C#Cc2cc(N(C)C)ccn2)cc1 [IRCBC-125]	1.68 nM	0.445 nM	0.145 nM	0.01 nM	–	–	–	–	–
C[C@H](NC(=O)c1nnn(C)c1Cc1ccccc1)c1ccc(C#Cc2cnc3cccnn23)cc1 [IRCBC-131]	8.75 nM	2.05 nM	0.16 nM	0.003 nM	–	–	–	–	–
CCN1CCN(c2ccc(C#Cc3ccc([C@H](C)NC(=O)c4nnn(C)c4Cc4ccccc4)cc3)nc2)CC1 [IRCBC-134]	0.005 nM	0.001 nM	0.002 nM	–	–	–	–	–	–
CNc1cnc(C#Cc2ccc([C@H](C)NC(=O)c3nnn(C)c3Cc3ccccc3)cc2)cn1 [IRCBC-145]	0.127 nM	0.063 nM	0.007 nM	–	–	–	–	–	–
CC(=O)Nc1ccc(C#Cc2ccc([C@H](C)NC(=O)c3nnn(C)c3Cc3ccccc3)cc2)nc1 [IRCBC-149]	0.066 nM	0.045 nM	0.003 nM	–	–	–	–	–	–
CC(C)N1CCN(c2ccc(C#Cc3ccc([C@H](C)NC(=O)c4nnn(C)c4Cc4ccccc4)cc3)nc2)CC1 [IRCBC-159]	0.006 nM	0.003 nM	0.002 nM	–	–	–	–	–	–
C[C@H](NC(=O)c1nnn(C)c1Cc1ccccc1)c1ccc(C#Cc2ncc(NC3CC3)cn2)cc1 [IRCBC-271]	0.00618 nM	–	0.0111 nM	–	–	–	–	–	–
CN1C(=O)N[C@H](Cc2c[nH]c3c(Cl)cccc23)C1=O [Nec-1s, reference compound]	–	–	–	–	443 nM	228 nM	–	–	–
C[C@H](NC(=O)c1nnn(C)c1Cc1ccccc1)c1ccc(C#Cc2cccnc2)cc1 [QY-18-25]	1.2 nM	0.3 nM	0.02 nM	< 0.01 nM	–	–	–	–	–
C[C@H](NC(=O)c1nnn(C)c1Cc1ccccc1)c1ccc(C#Cc2ccncc2)cc1 [QY-18-27]	0.06 nM	0.04 nM	0.01 nM	< 0.01 nM	–	–	–	–	stronger
C[C@H](NC(=O)c1nnn(C)c1Cc1ccccc1)c1ccc(C#Cc2cnn(C)c2)cc1 [QY-18-43]	0.08 nM	0.05 nM	0.06 nM	0.02 nM	–	–	–	–	–
